Assay results taken from patent US5344933A, “Pyrrole ring-or condensed pyrrole ring-containing azomethine dye” (Fuji Photo Film Co., Ltd., priority 1991, dated 1994).

Tests used:
Assay type in all cases: physicochemical
[1] = Absorption characteristics of dyes in ethyl acetate; conditions: for absorption maxima wavelength (λmax): Example 1
Text: The σp value of substituents in dyes of the present invention, the absorption maxima wavelength of these dyes in ethyl acetate and their half value widths are tabulated below.
The absorption characteristics of Dyes 1, 2, 8, 12, 23, 101, 102, 104, 105, 106, 128, 129, 130, and 131 of the present invention in ethyl acetate are as shown in FIGS. 1 to 14. In these figures, the abbreviation "ABS" in the ordinate means the absorbance. The absorption maxima wavelength (λmax) in ethyl acetate and other physical properties of the dyes of the present invention are as follows: […]

[2] = Light fastness of dye images, 17,000 lux fluorescent lamp, 7 days
Experimental: (§1) The heat transfer image-receiving materials on which recording had been made were then irradiated with light from a 17,000 lux fluorescent lamp for 7 days to examine the stability of the dyes. The heat transfer image-receiving materials were also stored at a temperature of 60° C. under dry conditions for 7 days to examine the fastness of the dyes to heat. […] For the evaluation of stability, percentage of the measurements to the initial value (1.0) were determined. The measurement was effected at λmax.
Heat transfer dye providing materials (3-1), (3-2), and (3-3) were prepared in the same manner as in Example 2 except that the polyvinyl butyral resin and dye to be incorporated in the heat transfer dye providing layer coating composition of Example 2 were replaced by the resins and dyes set forth in Table 3.
(§2) Using the same image-receiving material as prepared in Example 2, printing was made on these heat transfer dye providing materials.
Heat transfer dye providing materials (6-1), (6-2), and (6-3) were prepared in the same manner as in Example 2 except that the polyvinyl butyral resin and dye to be incorporated in the heat transfer dye providing layer coating composition of Example 2 were replaced by the resins and dyes set forth in Table 6.

[3] = Heat fastness of dye images, 60° C. dry, 7 days (Example 2); conditions: Table 1, initial density 1.0, at λmax
Experimental: as §1

[4] = Heat fastness of dye images, 60° C. dry, 7 days, status A reflection density (Example 5); conditions: Table 4, status A reflection density 1.0
Experimental: The heat transfer image-receiving materials on which recording had been made were stored at a temperature of 60° C. under dry conditions for 7 days to examine the fastness of the dyes to heat. […] For the evaluation of stability, percentage of the measurements to the initial value (1.0) were determined.
as §2

[5] = Table 1, 17,000 lux, 7 days, initial density 1.0, at λmax, polyvinyl butyral

CCOC(=O)c1c(C)n2c(nc1=O)C(C#N)=C(c1ccccc1)C2=Nc1ccc(N(CC)CCNS(C)(=O)=O)cc1C [Dye 1]
absorption maxima wavelength (λmax) [1]: 697 nm

CCOC(=O)c1c(C)n2c(nc1=O)C(C#N)=C(c1ccccc1)C2=Nc1ccc(N(CC)CC)cc1 [Dye 2]
Light fastness (% remaining) [2, 5]: 90%
Light fastness (% remaining) ([2]; Table 3, resin ethyl cellulose): 91%
absorption maxima wavelength (λmax) [1]: 685 nm
Heat fastness (% remaining) [3]: 85%

CCOC(=O)c1c(C)n2c(nc1=O)C(C#N)=C(c1ccccc1)C2=Nc1ccc(N(CC)CCOc2ccc(OC)cc2)cc1 [Dye 3]
Light fastness (% remaining) [2, 5]: 92%
Heat fastness (% remaining) [3]: 86%

CCOC(=O)c1c(C)n2c(nc1=O)C(C#N)=C(c1ccccc1)C2=Nc1ccc(N(CC)CC)cc1NC(=O)OC [Dye 4]
Light fastness (% remaining) [2, 5]: 91%
Light fastness (% remaining) ([2]; Table 3, resin cellulose acetobutyrate): 92%
Heat fastness (% remaining) [3]: 85%

CCOC(=O)c1cn2c(nc1=O)C(C#N)=C(c1ccccc1)C2=Nc1ccc(N(CC)CC)cc1 [Dye 8]
Light fastness (% remaining) [2, 5]: 91%
Light fastness (% remaining) ([2]; Table 3, resin polysulfone): 91%
absorption maxima wavelength (λmax) [1]: 694 nm
Heat fastness (% remaining) [3]: 99%

CCOC(=O)c1cn2c(nc1=O)C(C#N)=C(c1ccccc1)C2=Nc1ccc(N(CC)CCOc2ccc(OC)cc2)cc1 [Dye 10]
Light fastness (% remaining) [2, 5]: 93%
Heat fastness (% remaining) [3]: 100%

CCOC(=O)c1cn2c(nc1=O)C(C#N)=C(c1ccccc1)C2=Nc1ccc(N(CC)CC)cc1NC(=O)OC [Dye 12]
Light fastness (% remaining) [2, 5]: 94%
absorption / hue (in words) [1]: sufficient and sharp absorption in the vicinity of 700 nm and little or no absorption in the wavelength region of longer than 800 nm
absorption maxima wavelength (λmax) [1]: 698 nm
Heat fastness (% remaining) [3]: 98%

CCOC(=O)c1cn2c(nc1=O)C(C#N)=C(C#N)C2=Nc1ccc(N(CC)CC)cc1NC(=O)N(C)C [Dye 16]
Light fastness (% remaining) [2, 5]: 93%
Heat fastness (% remaining) [3]: 98%

CCN(CC)c1ccc(N=C2C(C#N)=C(c3ccccc3)c3nc(=O)ccn32)c(NC(C)=O)c1 [Dye 17]
Light fastness (% remaining) [2, 5]: 91%
Heat fastness (% remaining) [3]: 95%

CCN(CC)c1ccc(N=C2C(c3ccccc3)=C(C#N)c3nc(=O)c4ccccc4n32)c(NC(C)=O)c1 [Dye 22]
Light fastness (% remaining) [2, 5]: 91%
Heat fastness (% remaining) [3]: 85%

CCCCCCCCCCCCCCCCCCOc1ccc(-c2cc(=O)n3c(n2)C(C#N)=C(c2ccccc2)C3=Nc2ccc(N(CC)CCNS(C)(=O)=O)cc2C)cc1 [Dye 23]
absorption maxima wavelength (λmax) [1]: 658 nm

CCOC(=O)C1=C(C#N)C(=Nc2ccc(N(CC)CC)cc2)n2c1nc1ccccc1c2=O [Dye 29]
Light fastness (% remaining) [2, 5]: 90%
Heat fastness (% remaining) [3]: 86%

CCCCCCCCCCCCC(SC1=NC(=Nc2ccc(N(CC)CCNS(C)(=O)=O)cc2C)C(C#N)=C1C(=O)OCC)C(=O)OCC (stereo not drawn) [Dye 101]
Half value width [1]: 65 nm
absorption / hue (in words) [1]: long absorption maxima wavelength
half value width (in words) [1]: sufficiently small
absorption maxima wavelength (λmax) [1]: 660 nm

CCCCCCCCCCCCSC1=NC(=Nc2ccc(N(CC)CCNS(C)(=O)=O)cc2C)C(C#N)=C1C(=O)OCC [Dye 102]
Half value width [1]: 69 nm
absorption / hue (in words) [1]: long absorption maxima wavelength
half value width (in words) [1]: sufficiently small
absorption maxima wavelength (λmax) [1]: 655 nm

CCC(Oc1ccc(C(C)(C)CC)cc1C(C)(C)CC)C(=O)NC1=C(C#N)C(c2ccccc2)=NC1=Nc1ccc(N(CC)CCNS(C)(=O)=O)cc1C (stereo not drawn) [Dye 104]
Half value width [1]: 78 nm
absorption / hue (in words) [1]: in a slightly short wavelength range but exhibit a cyan hue
half value width (in words) [1]: large half value width
absorption maxima wavelength (λmax) [1]: 601 nm

CCOC(=O)C1=C(c2ccccc2)C(=Nc2ccc(N(CC)CCNS(C)(=O)=O)cc2C)N=C1Cl [Dye 105]
Half value width [1]: 82 nm
absorption / hue (in words) [1]: in a slightly short wavelength range but exhibit a cyan hue
half value width (in words) [1]: large half value width
absorption maxima wavelength (λmax) [1]: 582 nm

CCN(CCNS(C)(=O)=O)c1ccc(N=C2N=C(N)C(C#N)=C2C#N)c(C)c1 [Dye 106]
Half value width [1]: 79 nm
absorption maxima wavelength (λmax) [1]: 641 nm

CCN(CC)c1ccc(N=C2N=C(NC(=O)C(C)(C)C)C(C#N)=C2C#N)cc1 [Dye 113]
Light fastness (% remaining) ([2]; Table 6, resin ethyl cellulose): 91%
Heat fastness (% remaining) [4]: 90%

CCN(CC)c1ccc(N=C2N=C(c3ccccc3)C(C#N)=C2c2ccccc2)c(C)c1 [Dye 114]
Light fastness (% remaining) ([2]; Table 6, resin cellulose acetobutyrate): 93%
Heat fastness (% remaining) [4]: 91%

CCN(CCOc1ccc(OC)cc1)c1ccc(N=C2N=C(c3ccccc3)C(C#N)=C2NC(=O)C(C)(C)C)cc1 [Dye 115]
Light fastness (% remaining) ([2]; Table 6, resin polysulfone): 92%
Heat fastness (% remaining) [4]: 90%

CCN(CC)c1ccc(N=C2N=C(c3ccccc3NC(=O)C(C)(C)C)C(C#N)=C2c2ccccc2)cc1 [Dye 116]
Heat fastness (% remaining) [4]: 89%

CCN(CC)c1ccc(N=C2N=C(c3ccccc3)C(C#N)=C2C(C)(C)C)c(NC(=O)N2CCOCC2)c1 [Dye 117]
Heat fastness (% remaining) [4]: 94%

CCN(CC)c1ccc(N=C2N=C(c3ccccc3Cl)C(C(C)(C)C)=C2C#N)c(NC(=O)C(C)(C)C)c1 [Dye 118]
Heat fastness (% remaining) [4]: 91%

CCN(CCC#N)c1ccc(N=C2N=C(NC(=O)C(C)(C)C)C(C#N)=C2C#N)cc1 [Dye 119]
Heat fastness (% remaining) [4]: 90%

CCN(CCOc1ccc(C(=O)c2ccccc2)c(O)c1)c1ccc(N=C2N=C(c3ccccc3)C(C#N)=C2c2cccs2)cc1 [Dye 120]
Heat fastness (% remaining) [4]: 98%

CCN(CCNS(C)(=O)=O)c1ccc(N=C2N=C(NC(C)=O)C(C#N)=C2C#N)c(C)c1 [Dye 128]
Half value width [1]: 64 nm
absorption / hue (in words) [1]: long absorption maxima wavelength
half value width (in words) [1]: sufficiently small
absorption maxima wavelength (λmax) [1]: 658 nm

CCN(CCNS(C)(=O)=O)c1ccc(N=C2N=C(NC(=O)Nc3ccccc3)C(C#N)=C2C#N)c(C)c1 [Dye 129]
Half value width [1]: 79 nm
absorption / hue (in words) [1]: long absorption maxima wavelength
half value width (in words) [1]: sufficiently small
absorption maxima wavelength (λmax) [1]: 677 nm

CCCCCCCCCCCCCCCCS(=O)(=O)Nc1ccc(Cl)c(NC(=O)NC2=NC(=Nc3ccc(N(CC)CCNS(C)(=O)=O)cc3)C(C(N)=O)=C2C(N)=O)c1 [Dye 130]
Half value width [1]: 120 nm
half value width (in words) [1]: large half value width
absorption maxima wavelength (λmax) [1]: 639 nm

CCC(Oc1ccc(C(C)(C)CC)cc1C(C)(C)CC)C(=O)NC1=NC(=Nc2ccc(N(CC)CCNS(C)(=O)=O)cc2C)C(C(N)=O)=C1C(N)=O (stereo not drawn) [Dye 131]
Half value width [1]: 98 nm
half value width (in words) [1]: large half value width
Absorption maxima ([1]; first table): 629 nm

CCC1=C(Cl)C(=O)C(NC(=O)c2ccco2)=CC1=Nc1ccc(N(CC)CC)cc1 [Dye a, reference compound]
Light fastness (% remaining) [2, 5]: 87%
Heat fastness (% remaining) [3]: 88%

CCN(CC)c1ccc(N=C2C=C(NC(=O)c3ccco3)C(=O)C(Cl)=C2C)cc1 [Dye b, reference compound]
Heat fastness (% remaining) [4]: 83%
